{"source": "patent EP1377579B1", "about": "(Aventis Pharmaceuticals Inc., priority 2000, dated 2002)", "key": {"cdk2/cyclin E": {"biological_target": "cdk2/cyclin E (Homo sapiens, UniProt P24941)", "assay": "Cyclin-dependent kinase assay, cdk2/cyclin E", "conditions": "CDK2 IC50, nM, GST-pRb substrate, 10 µM ATP", "description": "The insect cell (Sf9) expression is optimized for each of the CDK/cyclin pairs according to the manufacturer's protocols (Life Technologies).\nThe viruses are added to the cells and the culture is incubated at 27°C for the desired time. The cells are harvested by centrifugation at 3000 rpm for 10 minutes. The cells are snap frozen on dry ice and stored at - 80°C.\nCell extracts are made following a standard procedure. The cell pellet is resuspended in lysis buffer (50 mM HEPES, pH 8.0, 10 mM MgCl2, 1 mM DTT, 2.5 mM EGTA, 1 mM EDTA, 10 mM β-glycerophosphate, 1 mM sodium vanadate, 1 mM sodium fluoride, 1 x Protease inhibitor cocktail). The cells are lysed using the microfluidizer (Microfluidics) for 20 minutes. Cell debris is removed by centrifugation at 100,000 x g. The cell extracts are aliquoted in 1 ml aliquots, frozen on dry ice, and stored at -80°C.\nThe kinase reactions are performed following a standard procedure. The enzyme and inhibitor are diluted in kinase buffer (50 mM HEPES, pH 8.0, 10 mM MgCl2, 2.5 mM EGTA, 10 mM β-glycerophosphate, 1 mM sodium vanadate, 1 mM sodium fluoride, and 1 mM DTT) and pre-incubated for 30 minutes. The cdk2 and cdk4 enzyme activities are assayed using 500 ng of the GST-pRb substrate (see description below) in the presence of 10 µM cold ATP and 1 µCi of [γ-^33P] ATP for 30 minutes at room temperature. […] The reactions are terminated by the addition of 50 µL of 10 mM cold ATP to stop the reactions. The reactions are transferred to a pre-soaked 96-well multi-screen plate containing 30 µL of 100% TCA per well. After incubation for one hour at room temperature, the plates are washed twice with 200 µl of 20% TCA, followed by 200 µl of 10% TCA and finally with 200 µl of 5% TCA. After drying the plates at room temperature, the filter plates are placed in adapter plates (Packard) and 40 µl of Microscint-O® (Packard) is added to each well."}, "MDA-MB-435": {"tested_on": "MDA-MB-435", "assay": "In vitro proliferation assay (MTT), MDA-MB-435", "type": "cell-based, human", "conditions": "Homo sapiens", "procedure,_shortened": "(§1)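 Tetrazolium (MTT) reduction measures live cells remaining after 3 days with test compound, following overnight attachment at 1000–2500 cells/well. Dye is taken up in DMSO and read at 570 nm.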"}, "cdk1/cyclin B": {"biological_target": "cdk1/cyclin B (Homo sapiens, UniProt P06493)", "sequence (P06493 whole entry)": "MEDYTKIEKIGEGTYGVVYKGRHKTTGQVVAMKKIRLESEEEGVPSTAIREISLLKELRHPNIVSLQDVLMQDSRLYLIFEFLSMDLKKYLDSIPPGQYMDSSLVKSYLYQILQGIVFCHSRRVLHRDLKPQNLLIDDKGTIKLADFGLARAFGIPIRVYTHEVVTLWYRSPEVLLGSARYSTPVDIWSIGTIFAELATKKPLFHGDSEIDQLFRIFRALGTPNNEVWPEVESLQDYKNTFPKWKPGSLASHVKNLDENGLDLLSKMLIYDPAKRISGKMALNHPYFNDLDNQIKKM", "sequence (P14635 whole entry partner)": "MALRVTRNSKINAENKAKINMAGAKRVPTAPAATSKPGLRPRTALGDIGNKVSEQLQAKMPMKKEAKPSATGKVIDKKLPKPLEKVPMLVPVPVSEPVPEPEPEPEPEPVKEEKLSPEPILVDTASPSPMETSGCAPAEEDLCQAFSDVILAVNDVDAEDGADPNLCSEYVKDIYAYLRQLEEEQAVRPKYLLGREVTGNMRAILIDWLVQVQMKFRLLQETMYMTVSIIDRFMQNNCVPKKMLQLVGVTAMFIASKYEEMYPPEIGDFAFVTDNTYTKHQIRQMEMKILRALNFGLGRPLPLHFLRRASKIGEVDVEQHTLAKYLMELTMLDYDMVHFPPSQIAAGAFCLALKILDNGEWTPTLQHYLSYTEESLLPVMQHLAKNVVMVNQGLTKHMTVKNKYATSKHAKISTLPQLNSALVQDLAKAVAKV", "assay": "Cyclin-dependent kinase assay, cdk1/cyclin B", "conditions": "CDK1 IC50, nM, Histone H1, 10 µM ATP"}, "HL-60 Human Leukemia": {"tested_on": "HL-60 Human Leukemia", "assay": "HL-60 human leukemia xenograft in nude mice", "type": "in vivo", "conditions": "Table 5", "procedure": "(§2) Antitumor efficacy is assessed using two subcutaneous human tumor xenograft models. The studies are performed using conventional assay techniques. Briefly, HL-60 (leukemia, 5 x10^5 cells) and PC-3 (prostate, 5 x 10^6 cells) tumor cells are injected subcuateously into nude mice (Crl-CD1-Br-nu, Charles River Laboratory, Wilmington, MA). Dosing with compounds began when tumors reached 50 to 100 mm^3. The dose route/schedule for the test compounds is ip/qld (5x/wk). The test doses are set based on the maximum tolerated dose (MTD). […] The test doses for the efficacy studies are set at 1/3rd the MTD (low dose) and the MTD (high dose). The results are shown in Tables 4 and 5 (HL-60, leukemia) (PC-3, prostate cancer). The length of the treatment phase is dependent on the tumor growth rate for the two models. This treatment phase is typically about 3 weeks for the HL-60 model and about 5 weeks for the PC-3 model. […] Dosing with flavopiridol is for the same time frame as for the experimental compounds in both xenograft models. Tumor volume (twice weekly) and body weights (once weekly) are monitored throughout the course of the treatment phase of the experiment. Tumor sizes are measured by external caliper measurements of protruding tumor. Volumes are calculated using the following formula: volume =½ (a x b2), where b is the smaller of two perpendicular diameters."}, "Jurkat": {"tested_on": "Jurkat", "assay": "In vitro proliferation assay (MTT), Jurkat", "type": "cell-based", "conditions": "Homo sapiens, MTT assay, value (SD, n) where given, read-out: Jurkat Leuk. (IC50 µM)", "procedure,_shortened": "(§3)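 Overnight-recovered cultures (1000–2500 cells/well) were treated with compound for 3 days and then given MTT at 37 C for 2–4 hr. Dye was extracted with DMSO and read at 570 nm. IC50s were fitted to the absorbance-versus-concentration data.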"}, "HL-60": {"tested_on": "HL-60", "assay": "In vitro proliferation assay (MTT), HL-60", "type": "cell-based", "conditions": "Homo sapiens", "procedure,_shortened": "as §3"}, "[1]": {"tested_on": "PC-3 Human Prostate Tumors", "assay": "PC-3 human prostate tumor xenograft in nude mice", "type": "in vivo", "parameters": "unit not given here", "conditions": "Table 5", "procedure": "as §2"}, "cdk4/cyclin D1": {"biological_target": "cdk4/cyclin D1 (Homo sapiens, UniProt P11802)", "sequence (P11802 whole entry)": "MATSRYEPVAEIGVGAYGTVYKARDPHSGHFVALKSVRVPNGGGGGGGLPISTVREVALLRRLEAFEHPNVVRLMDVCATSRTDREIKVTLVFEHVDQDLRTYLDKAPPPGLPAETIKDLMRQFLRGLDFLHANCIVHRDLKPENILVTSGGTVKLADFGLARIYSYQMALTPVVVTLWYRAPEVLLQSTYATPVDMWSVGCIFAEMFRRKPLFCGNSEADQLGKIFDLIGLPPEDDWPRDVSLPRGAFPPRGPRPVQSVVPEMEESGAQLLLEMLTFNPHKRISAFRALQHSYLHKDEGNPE", "sequence (P24385 whole entry partner)": "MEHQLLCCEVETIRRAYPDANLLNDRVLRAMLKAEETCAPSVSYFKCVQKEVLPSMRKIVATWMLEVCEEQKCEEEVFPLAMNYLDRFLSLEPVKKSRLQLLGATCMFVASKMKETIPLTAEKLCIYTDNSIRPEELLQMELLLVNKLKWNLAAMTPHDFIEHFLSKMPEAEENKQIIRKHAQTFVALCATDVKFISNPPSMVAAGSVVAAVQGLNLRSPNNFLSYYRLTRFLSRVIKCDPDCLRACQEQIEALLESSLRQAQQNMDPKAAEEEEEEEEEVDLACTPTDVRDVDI", "assay": "Cyclin-dependent kinase assay, cdk4/cyclin D1", "type": "biochemical", "conditions": "cyclin D1/cdk4; GST-pRb substrate, 10 µM ATP"}, "PC-3": {"tested_on": "PC-3", "assay": "In vitro proliferation assay (MTT), PC-3", "type": "cell-based, human", "conditions": "Homo sapiens", "procedure,_shortened": "as §1"}, "in vivo": {"assay": "in vivo", "conditions": "male, Hsd:ICR (CD-1), mouse, plasma, 3 mg/kg"}, "[2]": {"assay": "Bioavailability experiment in mice given single intravenous cassette doses"}, "[3]": {"assay": "Red blood cell binding, human whole blood", "type": "in vitro ADME", "conditions": "30 minutes at 37°C, 500 ng/ml", "procedure": "Compounds, including one positive control, are assessed for red blood cell (RBC) uptake, using a modified procedure based on the protocol reported in Sun, J.X.S., et al. High-performance liquid chromatographic analysis, plasma protein binding and red blood cell partitioning of phenprobamate. Biopharmaceutics and Drug Disposition, 8 (1987) 341-351.\nBriefly, RBC uptake is evaluated by comparison of the levels in spiked plasma (n=3) and plasma isolated from spiked whole blood (n=3). Compounds are incubated with human and mouse whole blood, respectively, for 30 minutes at 37°C using a nominal concentration of 500 ng/ml. Following centrifugation, the plasma is removed and submitted for analysis. Each compound is also spiked into blank plasma at a nominal concentration of 500 ng/ml, and submitted for analysis. Levels in the two plasma samples (Cp' and Cp in the equation below) and the blood hematocrit are used to determine the red blood cell to plasma ratio (Crbc/Cp). (Crbc)/(Cp) = (Cpʹ)/(Cp•H)-((1-H))/(H) [formula] In equation 1, Cp' is the level of drug in the spiked \"blank\" plasma, Cp is the level of drug in the plasma of spiked whole blood, and H is the hematocrit. The hematocrit values are determined as 0.4 for human whole blood and 0.41 for mouse whole blood. The samples are analyzed with ESI LC/MS, using positive ion detection with an internal standard.\nThe red blood cell to plasma ratio is determined for each compound using equation 1. Tables 6 and 7 summarize the respective mean Crbc/Cp values and standard deviations for mouse and human whole blood, respectively, in descending order based on the red blood cell to plasma ratio, where\"*\" denotes Positive Control, and \"ND\" denotes Not Determined. MDL 108552 is included as a positive control for red blood cell uptake. Table 6. Red Blood Cell to Plasma Ratio for compounds in mouse whole blood"}, "Colo-205": {"tested_on": "Colo-205", "assay": "In vitro proliferation assay (MTT), Colo-205", "type": "cell-based", "conditions": "Homo sapiens", "procedure,_shortened": "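After 3 days of compound exposure, MTT was added to Colo-205 cultures for 2–4 h at 37 °C. Formazan was dissolved in DMSO and absorbance read at 570 nm. Cells had been plated at 1000–2500/well and left to recover overnight; IC50 values came from the raw readings.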"}, "NCI-H460": {"tested_on": "NCI-H460", "assay": "In vitro proliferation assay (MTT), NCI-H460", "type": "cell-based", "conditions": "Homo sapiens", "procedure,_shortened": "as §3"}, "[4]": {"conditions": "MDA-MB-435, MTT assay, value (SD, n) where given, read-out: MB-435 Breast (IC50 µM)"}, "[5]": {"conditions": "HL-60, MTT assay, value (SD, n) where given, read-out: HL-60 Leuk. (IC50 µM)"}, "[6]": {"conditions": "PC-3, MTT assay, value (SD, n) where given, read-out: PC-3 Prostate (IC50 µM)"}}, "note": "Counter-ions that a name gives are not always drawn. Like-named read-outs stand apart in the source and are kept apart here."}
{"smiles": "N[C@H]1CC[C@H](Nc2nc(NC3CCN(C(=O)c4cccc(C(F)(F)F)c4)CC3)c3ncn(C4CCCC4)c3n2)CC1", "note": "[compound 3, dihydrochloride]", "values": [{"measurement": "IC50", "setting": "cdk2/cyclin E", "result": 48, "unit": "nM"}, {"measurement": "IC50", "setting": "MDA-MB-435; [4]", "result": 0.25, "unit": "µM"}, {"measurement": "IC50", "setting": "cdk1/cyclin B", "result": 55, "unit": "nM"}, {"measurement": "HL60 Mean Vol. ± SD", "setting": "HL-60 Human Leukemia; dose 1 mg/kg ip", "result": "6370 ± 4655"}, {"measurement": "HL60 Mean Vol. ± SD", "setting": "HL-60 Human Leukemia; dose 3 mg/kg ip", "result": "6092 ± 4278"}, {"measurement": "IC50", "setting": "Jurkat", "result": 0.22, "unit": "µM"}, {"measurement": "IC50", "setting": "HL-60; [5]", "result": 0.13, "unit": "µM"}, {"measurement": "PC-3 Mean Vol. ± SD", "setting": "[1]; dose 1 mg/kg ip", "result": "671 ± 672"}, {"measurement": "PC-3 Mean Vol. ± SD", "setting": "[1]; dose 3 mg/kg ip", "result": "785 ± 473"}, {"measurement": "IC50", "setting": "cdk4/cyclin D1", "result": 1120, "unit": "nM"}, {"measurement": "IC50", "setting": "PC-3; [6]", "result": 0.66, "unit": "µM"}]}
{"smiles": "Cc1ccc(OC(=O)N2CCC(Nc3nc(N[C@H]4CC[C@H](N)CC4)nc4c3ncn4C3CCCC3)CC2)cc1.Cl.Cl", "note": "[compound 82, trans-4-[2-(4-Amino-cyclohexylamino)-9-cyclopentyl-9H-purin-6-ylamino]-piperidine-1-carboxylic acid p-tolyl ester dihydrochloride]", "values": [{"measurement": "IC50", "setting": "cdk2/cyclin E", "result": 45, "unit": "nM"}, {"measurement": "IC50", "setting": "MDA-MB-435; MDA-MB-435, read-out: MB-435 Breast (IC50 µM)", "result": 0.06, "unit": "µM"}, {"measurement": "IC50", "setting": "cdk1/cyclin B", "result": 31, "unit": "nM"}, {"measurement": "HL60 Mean Vol. ± SD", "setting": "HL-60 Human Leukemia; dose 1 mg/kg ip", "result": "5164 ± 55516"}, {"measurement": "HL60 Mean Vol. ± SD", "setting": "HL-60 Human Leukemia; dose 3 mg/kg ip", "result": "2841 ± 1845"}, {"measurement": "concentration at 0.083 h", "setting": "in vivo; intravenous", "result": "1460 ± 77.4", "unit": "ng/mL"}, {"measurement": "concentration at 0.25 h", "setting": "in vivo; intravenous", "result": "875 ± 96.7", "unit": "ng/mL"}, {"measurement": "concentration at 0.5 h", "setting": "in vivo; intravenous", "result": "370 ± 40", "unit": "ng/mL"}, {"measurement": "concentration at 1 h", "setting": "in vivo; intravenous", "result": "134 ± 16.3", "unit": "ng/mL"}, {"measurement": "concentration at 3 h", "setting": "in vivo; intravenous", "result": "37.5 ± 10.7", "unit": "ng/mL"}, {"measurement": "concentration at 6 h", "setting": "in vivo; intravenous", "result": "14.5 ± 3.4", "unit": "ng/mL"}, {"measurement": "concentration at 8 h", "setting": "in vivo; intravenous", "result": "12.3 ± 2.2", "unit": "ng/mL"}, {"measurement": "AUC(0-inf)", "setting": "in vivo; iv", "result": 944, "unit": "ng·h/mL"}, {"measurement": "Cmax", "setting": "in vivo; iv", "result": 1460, "unit": "ng/mL"}, {"measurement": "half-life", "setting": "in vivo; iv", "result": 3, "unit": "h"}, {"measurement": "Cls", "setting": "[2]; mice plasma, single intravenous cassette dose, 3 mg/kg/compound (15 mg/kg Total Dose), Cassette #4", "result": 53.0, "unit": "mL/min/kg"}, {"measurement": "Conc. in plasma", "setting": "[2]; mice, single 15 mg/kg intravenous cassette dose (3 mg/kg/compound), Cassette #4, 24 h, BLQ = below assay quantification limit (approximately 1 ng/ml)", "result": "BLQ"}, {"measurement": "IC50", "setting": "HL-60; HL-60, read-out: HL-60 Leuk. (IC50 µM)", "result": 0.04, "unit": "µM"}, {"measurement": "PC-3 Mean Vol. ± SD", "setting": "[1]; dose 1 mg/kg ip", "result": "810 ± 600"}, {"measurement": "PC-3 Mean Vol. ± SD", "setting": "[1]; dose 3 mg/kg ip", "result": "967 ± 407"}, {"measurement": "IC50", "setting": "cdk4/cyclin D1", "result": 131, "unit": "nM"}, {"measurement": "Mean Red Blood Cell to Plasma Ratio", "setting": "[3]", "result": 5.8}, {"measurement": "IC50", "setting": "Colo-205; COLO 205, read-out: Colo-205 Colon (IC50 µM)", "result": 0.06, "unit": "µM"}, {"measurement": "IC50", "setting": "PC-3; PC-3, read-out: PC-3 Prostate (IC50 µM)", "result": 0.12, "unit": "µM"}, {"measurement": "IC50", "setting": "NCI-H460; NCI-H460, read-out: H-460 Lung (IC50 µM)", "result": 0.08, "unit": "µM"}]}
{"smiles": "N[C@H]1CC[C@H](Nc2nc(NC3CCN(C(=O)Nc4cc(C(F)(F)F)ccc4F)CC3)c3ncn(C4CCCC4)c3n2)CC1", "note": "[compound 200, trans-4-[2-(4-Amino-cyclohexylamino)-9-cyclopentyl-9H-purin-6-ylamino]-piperidine-1-carboxylic acid (2-fluoro-5-trifluoromethyl-phenyl)-amide dihydrochloride]", "values": [{"measurement": "IC50", "setting": "cdk2/cyclin E", "result": 23, "unit": "nM"}, {"measurement": "IC50", "setting": "MDA-MB-435; [4]", "result": 0.09, "unit": "µM"}, {"measurement": "IC50", "setting": "cdk1/cyclin B", "result": 10, "unit": "nM"}, {"measurement": "IC50", "setting": "Jurkat", "result": 0.21, "unit": "µM"}, {"measurement": "IC50", "setting": "HL-60; [5]", "result": "< 0.02", "unit": "µM"}, {"measurement": "IC50", "setting": "cdk4/cyclin D1", "result": 597, "unit": "nM"}, {"measurement": "IC50", "setting": "Colo-205; COLO 205, MTT assay, value (SD, n) where given, read-out: Colo-205 Colon (IC50 µM)", "result": 0.06, "unit": "µM"}, {"measurement": "IC50", "setting": "PC-3; [6]", "result": 0.16, "unit": "µM"}, {"measurement": "IC50", "setting": "NCI-H460; NCI-H460, MTT assay, value (SD, n) where given, read-out: H-460 Lung (IC50 µM)", "result": 0.19, "unit": "µM"}]}
